{"source": "ChEMBL document CHEMBL3885881", "about": "“DrugMatrix”", "species": "Rattus norvegicus", "experiment": "DrugMatrix - Regimen: Daily Repeat", "type": "toxicity, organism-based, Sprague-Dawley", "parameters": "regimen Daily Repeat, gender Male, age 6-8 weeks", "settings": "in vivo, po, 100 mg/kg, route oral GAVAGE, dose level Low, vehicle 100 % WATER; for ABSOLUTE BASOPHIL / ABSOLUTE EOSINOPHIL / ABSOLUTE LYMPHOCYTE / ABSOLUTE MONOCYTE / ABSOLUTE SEGMENTED NEUTROPHIL / BASOPHIL / EOSINOPHIL / ERYTHROCYTE COUNT / HEMATOCRIT / HEMOGLOBIN / LEUKOCYTE COUNT / LYMPHOCYTE / MEAN CORPUSCULAR HEMOGLOBIN / MEAN CORPUSCULAR HEMOGLOBIN CONCENTRATION / MEAN CORPUSCULAR VOLUME / MONOCYTE / NEUTROPHIL / NUCLEATED RED BLOOD CELLS / PLATELET COUNT: tissue Blood; for ALANINE AMINOTRANSFERASE / ALBUMIN / ALKALINE PHOSPHATASE / ASPARTATE AMINOTRANSFERASE / BLOOD UREA NITROGEN / CARBON DIOXIDE / CHLORIDE / CHOLESTEROL / CREATINE PHOSPHOKINASE / CREATININE / GLUCOSE / LACTATE DEHYDROGENASE / LIPASE / PHOSPHORUS / POTASSIUM / SODIUM / TOTAL BILIRUBIN / TOTAL PROTEIN / URIC ACID: tissue Plasma", "data": [{"smiles": "C[C@](N)(Cc1ccc(O)c(O)c1)C(=O)O", "note": "[METHYLDOPA]", "values": [{"measurement": "ABSOLUTE BASOPHIL", "setting": "72 h, time 3 day", "result": 0, "unit": "CELLS/uL"}, {"measurement": "ABSOLUTE EOSINOPHIL", "setting": "72 h, time 3 day", "result": 0, "unit": "CELLS/uL"}, {"measurement": "ABSOLUTE LYMPHOCYTE", "setting": "72 h, time 3 day", "result": 10758.67, "unit": "CELLS/uL"}, {"measurement": "ABSOLUTE MONOCYTE", "setting": "72 h, time 3 day", "result": 142, "unit": "CELLS/uL"}, {"measurement": "ABSOLUTE SEGMENTED NEUTROPHIL", "setting": "72 h, time 3 day", "result": 1766, "unit": "CELLS/uL"}, {"measurement": "BASOPHIL", "setting": "72 h, time 3 day", "result": 0, "unit": "%"}, {"measurement": "EOSINOPHIL", "setting": "72 h, time 3 day", "result": 0, "unit": "%"}, {"measurement": "ERYTHROCYTE COUNT", "setting": "72 h, time 3 day", "result": 5.69, "unit": "x10E6/uL"}, {"measurement": "HEMATOCRIT", "setting": "72 h, time 3 day", "result": 36.1, "unit": "%"}, {"measurement": "HEMOGLOBIN", "setting": "72 h, time 3 day", "result": 13.63, "unit": "G/DL"}, {"measurement": "LEUKOCYTE COUNT", "setting": "72 h, time 3 day", "result": 12.67, "unit": "x10E3/uL"}, {"measurement": "LYMPHOCYTE", "setting": "72 h, time 3 day", "result": 85.33, "unit": "%"}, {"measurement": "MEAN CORPUSCULAR HEMOGLOBIN", "setting": "72 h, time 3 day", "result": 24.03, "unit": "pg"}, {"measurement": "MEAN CORPUSCULAR HEMOGLOBIN CONCENTRATION", "setting": "72 h, time 3 day", "result": 37.8, "unit": "G/DL"}, {"measurement": "MEAN CORPUSCULAR VOLUME", "setting": "72 h, time 3 day", "result": 63.63, "unit": "fL"}, {"measurement": "MONOCYTE", "setting": "72 h, time 3 day", "result": 1, "unit": "%"}, {"measurement": "NEUTROPHIL", "setting": "72 h, time 3 day", "result": 13.67, "unit": "%"}, {"measurement": "NUCLEATED RED BLOOD CELLS", "setting": "72 h, time 3 day", "result": "0 /100WBC"}, {"measurement": "PLATELET COUNT", "setting": "72 h, time 3 day", "result": 1351.33, "unit": "x10E3/uL"}, {"measurement": "ALANINE AMINOTRANSFERASE", "setting": "72 h, time 3 day", "result": 54, "unit": "u/L"}, {"measurement": "ALBUMIN", "setting": "72 h, time 3 day", "result": 4.2, "unit": "G/DL"}, {"measurement": "ALKALINE PHOSPHATASE", "setting": "72 h, time 3 day", "result": 332.33, "unit": "u/L"}, {"measurement": "ASPARTATE AMINOTRANSFERASE", "setting": "72 h, time 3 day", "result": 92.67, "unit": "u/L"}, {"measurement": "BLOOD UREA NITROGEN", "setting": "72 h, time 3 day", "result": 19.33, "unit": "mg/dL"}, {"measurement": "CARBON DIOXIDE", "setting": "72 h, time 3 day", "result": 25.67, "unit": "mmol/L"}, {"measurement": "CHLORIDE", "setting": "72 h, time 3 day", "result": 102.67, "unit": "MEQ/L"}, {"measurement": "CHOLESTEROL", "setting": "72 h, time 3 day", "result": 84, "unit": "mg/dL"}, {"measurement": "CREATINE PHOSPHOKINASE", "setting": "72 h, time 3 day", "result": 281.67, "unit": "u/L"}, {"measurement": "CREATININE", "setting": "72 h, time 3 day", "result": 0.24, "unit": "mg/dL"}, {"measurement": "GLUCOSE", "setting": "72 h, time 3 day", "result": 161.33, "unit": "mg/dL"}, {"measurement": "LACTATE DEHYDROGENASE", "setting": "72 h, time 3 day", "result": 210.33, "unit": "u/L"}, {"measurement": "LIPASE", "setting": "72 h, time 3 day", "result": 13, "unit": "u/L"}, {"measurement": "PHOSPHORUS", "setting": "72 h, time 3 day", "result": 12.67, "unit": "mg/dL"}, {"measurement": "POTASSIUM", "setting": "72 h, time 3 day", "result": 7.2, "unit": "MEQ/L"}, {"measurement": "SODIUM", "setting": "72 h, time 3 day", "result": 145.7, "unit": "MEQ/L"}, {"measurement": "TOTAL BILIRUBIN", "setting": "72 h, time 3 day", "result": 0.23, "unit": "mg/dL"}, {"measurement": "TOTAL PROTEIN", "setting": "72 h, time 3 day", "result": 6.07, "unit": "G/DL"}, {"measurement": "URIC ACID", "setting": "72 h, time 3 day", "result": 2.93, "unit": "mg/dL"}, {"measurement": "ABSOLUTE BASOPHIL", "setting": "120 h, time 5 day", "result": 0, "unit": "CELLS/uL"}, {"measurement": "ABSOLUTE EOSINOPHIL", "setting": "120 h, time 5 day", "result": 0, "unit": "CELLS/uL"}, {"measurement": "ABSOLUTE LYMPHOCYTE", "setting": "120 h, time 5 day", "result": 9543.67, "unit": "CELLS/uL"}, {"measurement": "ABSOLUTE MONOCYTE", "setting": "120 h, time 5 day", "result": 215.33, "unit": "CELLS/uL"}, {"measurement": "ABSOLUTE SEGMENTED NEUTROPHIL", "setting": "120 h, time 5 day", "result": 1341, "unit": "CELLS/uL"}, {"measurement": "BASOPHIL", "setting": "120 h, time 5 day", "result": 0, "unit": "%"}, {"measurement": "EOSINOPHIL", "setting": "120 h, time 5 day", "result": 0, "unit": "%"}, {"measurement": "ERYTHROCYTE COUNT", "setting": "120 h, time 5 day", "result": 5.03, "unit": "x10E6/uL"}, {"measurement": "HEMATOCRIT", "setting": "120 h, time 5 day", "result": 32.97, "unit": "%"}, {"measurement": "HEMOGLOBIN", "setting": "120 h, time 5 day", "result": 12.67, "unit": "G/DL"}, {"measurement": "LEUKOCYTE COUNT", "setting": "120 h, time 5 day", "result": 11.1, "unit": "x10E3/uL"}, {"measurement": "LYMPHOCYTE", "setting": "120 h, time 5 day", "result": 86, "unit": "%"}, {"measurement": "MEAN CORPUSCULAR HEMOGLOBIN", "setting": "120 h, time 5 day", "result": 25.17, "unit": "pg"}, {"measurement": "MEAN CORPUSCULAR HEMOGLOBIN CONCENTRATION", "setting": "120 h, time 5 day", "result": 38.47, "unit": "G/DL"}, {"measurement": "MEAN CORPUSCULAR VOLUME", "setting": "120 h, time 5 day", "result": 65.47, "unit": "fL"}, {"measurement": "MONOCYTE", "setting": "120 h, time 5 day", "result": 1.67, "unit": "%"}, {"measurement": "NEUTROPHIL", "setting": "120 h, time 5 day", "result": 12.33, "unit": "%"}, {"measurement": "NUCLEATED RED BLOOD CELLS", "setting": "120 h, time 5 day", "result": "0 /100WBC"}, {"measurement": "PLATELET COUNT", "setting": "120 h, time 5 day", "result": 979.33, "unit": "x10E3/uL"}, {"measurement": "ALANINE AMINOTRANSFERASE", "setting": "120 h, time 5 day", "result": 56.67, "unit": "u/L"}, {"measurement": "ALBUMIN", "setting": "120 h, time 5 day", "result": 4.1, "unit": "G/DL"}, {"measurement": "ALKALINE PHOSPHATASE", "setting": "120 h, time 5 day", "result": 363.67, "unit": "u/L"}, {"measurement": "ASPARTATE AMINOTRANSFERASE", "setting": "120 h, time 5 day", "result": 90, "unit": "u/L"}, {"measurement": "BLOOD UREA NITROGEN", "setting": "120 h, time 5 day", "result": 17, "unit": "mg/dL"}, {"measurement": "CARBON DIOXIDE", "setting": "120 h, time 5 day", "result": 24.33, "unit": "mmol/L"}, {"measurement": "CHLORIDE", "setting": "120 h, time 5 day", "result": 103.33, "unit": "MEQ/L"}, {"measurement": "CHOLESTEROL", "setting": "120 h, time 5 day", "result": 67, "unit": "mg/dL"}, {"measurement": "CREATINE PHOSPHOKINASE", "setting": "120 h, time 5 day", "result": 265.33, "unit": "u/L"}, {"measurement": "CREATININE", "setting": "120 h, time 5 day", "result": 0.56, "unit": "mg/dL"}, {"measurement": "GLUCOSE", "setting": "120 h, time 5 day", "result": 159, "unit": "mg/dL"}, {"measurement": "LACTATE DEHYDROGENASE", "setting": "120 h, time 5 day", "result": 154.33, "unit": "u/L"}, {"measurement": "LIPASE", "setting": "120 h, time 5 day", "result": 13.33, "unit": "u/L"}, {"measurement": "PHOSPHORUS", "setting": "120 h, time 5 day", "result": 11.83, "unit": "mg/dL"}, {"measurement": "POTASSIUM", "setting": "120 h, time 5 day", "result": 6.26, "unit": "MEQ/L"}, {"measurement": "SODIUM", "setting": "120 h, time 5 day", "result": 145.33, "unit": "MEQ/L"}, {"measurement": "TOTAL BILIRUBIN", "setting": "120 h, time 5 day", "result": 0.17, "unit": "mg/dL"}, {"measurement": "TOTAL PROTEIN", "setting": "120 h, time 5 day", "result": 5.8, "unit": "G/DL"}, {"measurement": "URIC ACID", "setting": "120 h, time 5 day", "result": 1.6, "unit": "mg/dL"}]}]}
